According to US10842892B2, “Methods and apparatus for synthesizing imaging agents, and intermediates thereof” (Lantheus Medical Imaging, Inc., priority 2010, dated 2020):
“And” between values parts separate entries of the source, which are not always exact repeats. Equal values may be shown once.

Experiments:
healthy adults = assay: whole-organ biodistribution and residence times by whole-body PET; type: in vivo, human; details: for Mean Percent Administered Dose, Brain / Mean Percent Administered Dose, GI Stomach Wall / Mean Percent Administered Dose, Heart Wall / Mean Percent Administered Dose, Kidneys / Mean Percent Administered Dose, Liver / Mean Percent Administered Dose, Marrow (lumbar) / Mean Percent Administered Dose, Salivary / Mean Percent Administered Dose, Spleen / Mean Percent Administered Dose, Thyroid / Mean Percent Administered Dose, Urinary Bladder / Mean Percent Administered Dose, Whole Body: N = 12, decay corrected
Method: Whole-body PET imaging from head to mid thigh was performed at protocol-specified time-windows.
The attenuation corrected transverse image data slice planes were combined into a single three-dimensional image matrix for each subject and each time point using custom software. These images were then divided into 6 image sets (“anterior”, “posterior”, “salivary”, “thyroid”, “source”, and “full”) of combined coronal plane image data for each subject at each time point, grouping organs with similar anterior to posterior depths. This was done to optimize the ROI creation, and minimize background contribution to the organs contained in each combined coronal plane image. The “anterior” images contained stomach wall, heart wall, and urinary bladder. The “posterior” images contained kidneys, lumbar spine, and spleen (when visible). The “salivary” images contained the salivary glands (parotid and submandibular). The “thyroid” images contained the thyroid. The “full” images combined all of the coronal image planes that contained subject image data and was used for quantification of the brain and liver. The “source” images contained the calibration source.
Absolute radioactivity was determined by normalizing ROI sums by a calibration factor derived from the calibration source. Region counts were also adjusted for activity containing underlying and overlying tissue that was not part of the organ or tissue being quantified by utilization of background regions of interest. Total body region counts were also corrected for off body background counts. Appropriate normalization of region sizes for organ and adjacent regions were made. Unobstructed regions of organs with significant overlap from other activity containing organs were also employed where necessary. In order to estimate the activity in the lower legs (which were not imaged), a region of interest on the upper thigh was utilized. Activities were also normalized where necessary to account for 100% of the injected activity, and to insure conservative (slight over-estimates) determination of absorbed dose.
Kinetic data for brain, heart wall, kidneys, liver, red marrow (lumbar spine regions were utilized), salivary glands, spleen, stomach wall, thyroid, and urinary bladder for the subjects in the study were determined using image quantification methodology. Absolute activity was converted to fractional dose by dividing by the total activity administered. Organ and tissue data were fit using non-linear least-squares regression with sums of exponentials of the form shown in Equation 1, where f and λ are the model parameters that are determined in the fitting process, Fij(t) is the fraction of the total injected activity, t is the time post injection, i is the i^th ROI, j is the j^th subject, and k is the k^th exponential term. Between one and four exponential terms were employed, as appropriate.
The regression was performed using custom software that determines initial parameter values based on the temporal variation of the kinetic data, and the use of pre-tabulated estimates for various time activity scenarios as selected by the user. […] Remainder of Body residence times were determined by subtraction of appropriate organ residence times from whole body residence times. Urinary bladder residence times were determined using the parameters determined by fitting the whole body activity data with a urinary bladder model as implemented in the OLINDA/EXM software with 3.5 hour bladder voiding interval. Red marrow residence time was determined based on a region of interest drawn on a portion of the lumbar spine. The lumbar spine was assumed to contain 16.1% (International Commission on Radiological Protection (ICRP) Publication 23, Report of the Task Group on Reference Man. Pergamon Press. 1975, page 125) of the total red marrow.

[1] = system: blood brain barrier (BBB); assay: brain uptake with and without blood brain barrier disruption; type: in vivo, rat; details: rat
Method: Male Sprague-Dawley rats were anesthetized with sodium pentobarbital and the left external carotid artery was cannulated close to the internal and external carotid bifurcation. Using saline as control and 25% D-mannitol as hypertonic solution, each were perfused retrogradely in six animals (0.3 mL/kg/sec) for 30 seconds. Two minutes later, ˜1 mCi imaging agent 1 was injected via tail vein and the brain was imaged with a microPET camera for 30 minutes. […] Following completion of imaging, the brain was harvested, photographed and dissected into left and right hemispheres and cerebellum. The tissue content of imaging agent 1 radioactivity was measured by gamma counter and Evans blue levels were determined by fluorescence method for calculation of the % injected dose/gram tissue and μg Evan blue/gram tissue, respectively.

[2] = N = 12, Void Interval = 3.5 hours
[3] = whole body coronal images, representative subject

Compound: CC(C)(C)n1ncc(OCc2ccc(COCC[18F])cc2)c(Cl)c1=O [imaging agent 1, 2-t-butyl-4-chloro-5-[4-(2-(^18F)fluoroethoxymethyl)-benzyloxy]-2H-pyridazin-3-1]
- Mean Percent Administered Dose, Brain (healthy adults; 0.17 hr post-dose): 8.3%
- Mean Percent Administered Dose, GI Stomach Wall (healthy adults; 0.17 hr post-dose): 2.5%
- Mean Percent Administered Dose, Heart Wall (healthy adults; 0.17 hr post-dose): 3.1%
- Mean Percent Administered Dose, Kidneys (healthy adults; 0.17 hr post-dose): 9.4%
- Mean Percent Administered Dose, Liver (healthy adults; 0.17 hr post-dose): 19.1%
- Mean Percent Administered Dose, Marrow (lumbar) (healthy adults; 0.17 hr post-dose): 0.3%
- Mean Percent Administered Dose, Salivary (healthy adults; 0.17 hr post-dose): 0.6%
- Mean Percent Administered Dose, Spleen (healthy adults; 0.17 hr post-dose): 0.9%
- Mean Percent Administered Dose, Thyroid (healthy adults; 0.17 hr post-dose): 0.1%
- Mean Percent Administered Dose, Urinary Bladder (healthy adults; 0.17 hr post-dose): 0.3%
- Mean Percent Administered Dose, Whole Body (healthy adults; 0.17 hr post-dose): 100.0%
- Mean Percent Administered Dose, Brain (healthy adults; 0.50 hr post-dose): 7.9%
- Mean Percent Administered Dose, GI Stomach Wall (healthy adults; 0.50 hr post-dose): 2.4%
- Mean Percent Administered Dose, Heart Wall (healthy adults; 0.50 hr post-dose): 3.2%
- Mean Percent Administered Dose, Kidneys (healthy adults; 0.50 hr post-dose): 6.5%
- Mean Percent Administered Dose, Liver (healthy adults; 0.50 hr post-dose): 18.0%
- Mean Percent Administered Dose, Marrow (lumbar) (healthy adults; 0.50 hr post-dose): 0.3%
- Mean Percent Administered Dose, Salivary (healthy adults; 0.50 hr post-dose): 0.7%
- Mean Percent Administered Dose, Spleen (healthy adults; 0.50 hr post-dose): 0.6%
- Mean Percent Administered Dose, Thyroid (healthy adults; 0.50 hr post-dose): 0.1%
- Mean Percent Administered Dose, Urinary Bladder (healthy adults; 0.50 hr post-dose): 0.2%
- Mean Percent Administered Dose, Whole Body (healthy adults; 0.50 hr post-dose): 99.8%
- Mean Percent Administered Dose, Brain (healthy adults; 0.83 hr post-dose): 7.3%
- Mean Percent Administered Dose, GI Stomach Wall (healthy adults; 0.83 hr post-dose): 2.2%
- Mean Percent Administered Dose, Heart Wall (healthy adults; 0.83 hr post-dose): 3.4%
- Mean Percent Administered Dose, Kidneys (healthy adults; 0.83 hr post-dose): 4.9%
- Mean Percent Administered Dose, Liver (healthy adults; 0.83 hr post-dose): 16.4%
- Mean Percent Administered Dose, Marrow (lumbar) (healthy adults; 0.83 hr post-dose): 0.3%
- Mean Percent Administered Dose, Salivary (healthy adults; 0.83 hr post-dose): 0.6%
- Mean Percent Administered Dose, Spleen (healthy adults; 0.83 hr post-dose): 0.4%
- Mean Percent Administered Dose, Thyroid (healthy adults; 0.83 hr post-dose): 0.1%
- Mean Percent Administered Dose, Urinary Bladder (healthy adults; 0.83 hr post-dose): 0.3%
- Mean Percent Administered Dose, Whole Body (healthy adults; 0.83 hr post-dose): 99.7%
- Mean Percent Administered Dose, Brain (healthy adults; 2.0 hr post-dose): 4.7%
- Mean Percent Administered Dose, GI Stomach Wall (healthy adults; 2.0 hr post-dose): 0.7%
- Mean Percent Administered Dose, Heart Wall (healthy adults; 2.0 hr post-dose): 2.4%
- Mean Percent Administered Dose, Kidneys (healthy adults; 2.0 hr post-dose): 1.6%
- Mean Percent Administered Dose, Liver (healthy adults; 2.0 hr post-dose): 7.5%
- Mean Percent Administered Dose, Salivary (healthy adults; 2.0 hr post-dose): 0.5%
- Mean Percent Administered Dose, Spleen (healthy adults; 2.0 hr post-dose): 0.3%
- Mean Percent Administered Dose, Thyroid (healthy adults; 2.0 hr post-dose): 0.1%
- Mean Percent Administered Dose, Urinary Bladder (healthy adults; 2.0 hr post-dose): 0.9%
- Mean Percent Administered Dose, Whole Body (healthy adults; 2.0 hr post-dose): 98.2%
- Mean Percent Administered Dose, Brain (healthy adults; 2.5 hr post-dose): 4.1%
- Mean Percent Administered Dose, GI Stomach Wall (healthy adults; 2.5 hr post-dose): 0.7%
- Mean Percent Administered Dose, Heart Wall (healthy adults; 2.5 hr post-dose): 2.5%
- Mean Percent Administered Dose, Kidneys (healthy adults; 2.5 hr post-dose): 1.6%
- Mean Percent Administered Dose, Liver (healthy adults; 2.5 hr post-dose): 7.0%
- Mean Percent Administered Dose, Salivary (healthy adults; 2.5 hr post-dose): 0.5%
- Mean Percent Administered Dose, Spleen (healthy adults; 2.5 hr post-dose): 0.3%
- Mean Percent Administered Dose, Thyroid (healthy adults; 2.5 hr post-dose): 0.1%
- Mean Percent Administered Dose, Urinary Bladder (healthy adults; 2.5 hr post-dose): 1.1%
- Mean Percent Administered Dose, Whole Body (healthy adults; 2.5 hr post-dose): 98.1%
- Mean Percent Administered Dose, Brain (healthy adults; 3.83 hr post-dose): 3.2%
- Mean Percent Administered Dose, GI Stomach Wall (healthy adults; 3.83 hr post-dose): 0.6%
- Mean Percent Administered Dose, Heart Wall (healthy adults; 3.83 hr post-dose): 2.1%
- Mean Percent Administered Dose, Kidneys (healthy adults; 3.83 hr post-dose): 1.2%
- Mean Percent Administered Dose, Liver (healthy adults; 3.83 hr post-dose): 4.5%
- Mean Percent Administered Dose, Salivary (healthy adults; 3.83 hr post-dose): 0.4%
- Mean Percent Administered Dose, Spleen (healthy adults; 3.83 hr post-dose): 0.3%
- Mean Percent Administered Dose, Thyroid (healthy adults; 3.83 hr post-dose): 0.1%
- Mean Percent Administered Dose, Urinary Bladder (healthy adults; 3.83 hr post-dose): 1.4%
- Mean Percent Administered Dose, Whole Body (healthy adults; 3.83 hr post-dose): 96.8%
- Mean Percent Administered Dose, Brain (healthy adults; 4.5 hr post-dose): 2.9%
- Mean Percent Administered Dose, GI Stomach Wall (healthy adults; 4.5 hr post-dose): 0.6%
- Mean Percent Administered Dose, Heart Wall (healthy adults; 4.5 hr post-dose): 2.1%
- Mean Percent Administered Dose, Kidneys (healthy adults; 4.5 hr post-dose): 1.1%
- Mean Percent Administered Dose, Liver (healthy adults; 4.5 hr post-dose): 4.7%
- Mean Percent Administered Dose, Salivary (healthy adults; 4.5 hr post-dose): 0.4%
- Mean Percent Administered Dose, Thyroid (healthy adults; 4.5 hr post-dose): 0.1%
- Mean Percent Administered Dose, Urinary Bladder (healthy adults; 4.5 hr post-dose): 1.7%
- Mean Percent Administered Dose, Whole Body (healthy adults; 4.5 hr post-dose): 96.9%
- mean peak uptake, brain (healthy adults; N = 12): approximately 8.3 % of the injected activity
- mean peak uptake, kidneys (healthy adults; N = 12): approximately 9.4 % of the injected activity
- mean peak uptake, liver (healthy adults; N = 12): approximately 19.1 % of the injected activity
- Residence Time, Mean, Brain (healthy adults; [2]): 0.14 h and 0.138 h
- Residence Time, Mean, GI Stomach Wall (healthy adults; [2]): 0.033 h
- Residence Time, Mean, Heart Wall (healthy adults; [2]): 0.0728 h
- Residence Time, Mean, Kidneys (healthy adults; [2]): 0.0952 h
- Residence Time, Mean, Liver (healthy adults; [2]): 0.28 h and 0.277 h
- Residence Time, Mean, Red Marrow (healthy adults; [2]): 0.0886 h
- Residence Time, Mean, Remainder of Body (healthy adults; [2]): 1.8 h and 1.84 h
- Residence Time, Mean, Salivary (healthy adults; [2]): 0.0148 h
- Residence Time, Mean, Spleen (healthy adults; [2]): 0.0101 h
- Residence Time, Mean, Thyroid (healthy adults; [2]): 0.00331 h
- Residence Time, Mean, Urinary Bladder (healthy adults; [2]): 0.0265 h
- high and sustained heart retention of ^18F, through time after injection (healthy adults; [3]): approximately 5 hours
- time of liver clearing after injection (healthy adults; [3]): approximately 2 hours
- BBB permeability [1]: high BBB permeability
